In patent EP4596574A1, “GLP-1/GCG/GIP TRIPLE-RECEPTOR AGONIST AND USE THEREOF” (Sunshine Lake Pharma Co., Ltd., priority 2022, dated 2024):
Marks after values point to notes of the source that are not given here.

Experiments:
GLP-1R = target: T1, GLP-1R (Homo sapiens, UniProt P43220); test: In vitro cell activity, cAMP production in HEK293 cells expressing GLP-1R; type: cell-based
T1 construct: expressed in transfected cells; host or cells: HEK293 (HEK293-GLP-1R)
Method in brief: (§1)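 Cells were plated at 4×10^5 cells/mL, and detection reagents (cAMP-d2, anti-cAMP cryptate, 1:1) were incubated 1 h at room temperature in the dark or overnight at 4 °C.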

GCGR = target: T2, GCGR (Homo sapiens, UniProt P47871); test: In vitro cell activity, cAMP production in HEK293 cells expressing GCGR; type: cell-based
T2 construct: expressed in transfected cells; host or cells: HEK293 (HEK293-GCGR)
T2 sequence (P47871 26-477, species assumed): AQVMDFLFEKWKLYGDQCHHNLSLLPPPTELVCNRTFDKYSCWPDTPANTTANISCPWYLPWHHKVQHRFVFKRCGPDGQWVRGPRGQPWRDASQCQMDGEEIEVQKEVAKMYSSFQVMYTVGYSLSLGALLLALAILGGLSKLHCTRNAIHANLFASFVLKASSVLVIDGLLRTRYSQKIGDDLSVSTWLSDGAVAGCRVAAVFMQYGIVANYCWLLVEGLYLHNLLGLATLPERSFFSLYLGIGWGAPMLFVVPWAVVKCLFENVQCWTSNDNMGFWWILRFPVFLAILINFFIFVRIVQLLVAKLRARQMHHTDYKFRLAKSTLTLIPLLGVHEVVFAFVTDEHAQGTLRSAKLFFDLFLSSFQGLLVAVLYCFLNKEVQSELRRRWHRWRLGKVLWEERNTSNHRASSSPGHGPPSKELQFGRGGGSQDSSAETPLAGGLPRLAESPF
Method in brief: as §1

[1] = Long-term repeated administration in diet-induced obese C57BL/6 mice (DIO); type: in vivo, C57/BL6 mice
Description: Experimental methods: C57/BL6 mice were randomly divided into a normal group (NFD) and a model group (HFD) at the fifth week of age. The normal group was fed with ordinary maintenance feed, while the other groups were fed with high-fat feed D12492. The body weight and food intake of mice were monitored every 3 weeks. After 16 weeks of feeding, the body weights of mice in the model group and the normal group were (49.0±2.3) g and (31.0±2.0) g, respectively, and the difference between the two groups was statistically significant. […] Body weight and food intake were measured before each administration. After 3 weeks of administration, an intraperitoneal glucose tolerance test was performed. The mice were slaughtered and samples were collected 72 h after the last administration. The liver weight was recorded, and the liver pathological conditions and blood biochemical indexes of each group were tested.

[2] = Glucose tolerance assessment in normal C57BL/6 mice (Example 5); type: in vivo
Procedure: Twelve hours after the single administration, the animals were fasted for 12 hours and had free access to water. Blood was collected from the tail vein to determine the basal blood glucose level of each group of animals, and then 2 g/kg glucose solution was injected intraperitoneally. Blood glucose was tested at 15, 30, 60, and 90 min after glucose administration. The blood glucose concentration-time curve was drawn according to the blood glucose values measured at different time points, and the AUC0~90min of each dose group was calculated as shown in Table 5 and Figure 2. Table 5: Effects of single administration of HEC-PT86, HEC-PT96, HEC-PT112, HEC-PT113, HEC-PT114, and HEC-PT119 on glucose tolerance in normal C57 mice 24 h after administration

GIPR = target: T3, GIPR (Homo sapiens, UniProt P48546); test: In vitro cell activity, cAMP production in HEK293 cells expressing GIPR; type: cell-based
T3 construct: expressed in transfected cells; host or cells: HEK293 (HEK293-GIPR)
T3 sequence (P48546 22-466): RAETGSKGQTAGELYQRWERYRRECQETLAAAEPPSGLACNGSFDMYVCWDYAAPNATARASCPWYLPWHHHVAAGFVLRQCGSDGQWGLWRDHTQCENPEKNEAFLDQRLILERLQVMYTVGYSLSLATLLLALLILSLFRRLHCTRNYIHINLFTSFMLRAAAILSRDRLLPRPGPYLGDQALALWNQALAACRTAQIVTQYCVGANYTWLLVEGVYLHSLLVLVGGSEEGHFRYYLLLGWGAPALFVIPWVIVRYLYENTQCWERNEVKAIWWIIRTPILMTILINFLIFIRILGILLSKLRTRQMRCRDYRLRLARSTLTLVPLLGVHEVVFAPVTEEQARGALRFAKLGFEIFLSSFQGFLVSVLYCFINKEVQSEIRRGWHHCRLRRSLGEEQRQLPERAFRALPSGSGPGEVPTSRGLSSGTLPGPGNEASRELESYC
Method in brief: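 cAMP accumulation is quantified by homogeneous TR-FRET (cAMP-d2 plus anti-cAMP cryptate) in GIPR-expressing HEK293 cells seeded from a 4×10^5 cells/mL suspension and treated with compound. The signal ratio is plotted against concentration and fitted to a four-parameter curve to give EC50.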

[3] = 10 nmol/kg s.c. once every 3 days, D7
[4] = 10 nmol/kg s.c. once every 3 days, D10
[5] = 10 nmol/kg s.c. once every 3 days, D13
[6] = 10 nmol/kg s.c. once every 3 days, D16
[7] = 10 nmol/kg s.c. once every 3 days, D19
[8] = 10 nmol/kg s.c. once every 3 days, D22
[9] = 10 nmol/kg s.c. once every 3 days, D25
[10] = 10 nmol/kg s.c. once every 3 days, D28
[11] = after 4 weeks of administration, same dose
[12] = long-term administration 10 nmol/kg, 72 h after the last administration
[13] = long-term administration 10 nmol/kg, blood biochemical index

T1 sequence (P43220 24-463, species assumed): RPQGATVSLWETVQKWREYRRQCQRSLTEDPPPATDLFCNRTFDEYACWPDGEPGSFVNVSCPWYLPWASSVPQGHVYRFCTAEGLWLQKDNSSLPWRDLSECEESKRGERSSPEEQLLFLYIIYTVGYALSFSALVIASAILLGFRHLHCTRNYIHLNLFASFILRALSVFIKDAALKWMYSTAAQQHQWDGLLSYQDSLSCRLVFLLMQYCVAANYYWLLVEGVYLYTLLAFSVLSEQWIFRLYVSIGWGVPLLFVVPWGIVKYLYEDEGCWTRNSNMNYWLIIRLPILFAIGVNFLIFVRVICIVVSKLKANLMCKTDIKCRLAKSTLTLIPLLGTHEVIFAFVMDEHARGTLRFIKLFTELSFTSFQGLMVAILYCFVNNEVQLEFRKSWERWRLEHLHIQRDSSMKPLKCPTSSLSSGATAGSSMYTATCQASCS

CC[C@H](C)[C@H](NC(=O)[C@H](Cc1ccccc1)NC(=O)[C@H](C)NC(=O)C(C)(C)NC(=O)[C@H](CCC(N)=O)NC(=O)[C@H](CCCNC(=N)N)NC(=O)[C@H](CCCCNC(=O)COCCOCCNC(=O)CC[C@H](NC(=O)CCCCCCCCCCCCCCCCC(=O)O)C(=O)O)NC(=O)[C@H](CCC(=O)O)NC(=O)[C@H](CC(=O)O)NC(=O)[C@H](CC(C)C)NC(=O)[C@H](CC(C)C)NC(=O)[C@@H](NC(=O)[C@H](CO)NC(=O)[C@H](Cc1ccc(O)cc1)NC(=O)[C@H](CC(=O)O)NC(=O)[C@H](CO)NC(=O)[C@@H](NC(=O)[C@](C)(Cc1ccccc1F)NC(=O)[C@@H](NC(=O)CNC(=O)[C@H](CCC(N)=O)NC(=O)C(C)(C)NC(=O)[C@@H](N)Cc1ccc(O)cc1)[C@@H](C)O)[C@@H](C)O)[C@@H](C)CC)C(=O)N[C@@H](CCC(=O)O)C(=O)N[C@@H](Cc1ccc(O)cc1)C(=O)N[C@@H](CC(C)C)C(=O)N[C@@H](CC(C)C)C(=O)N[C@@H](C)C(=O)NCC(=O)NCC(=O)N1CCC[C@H]1C(=O)N[C@@H](CO)C(=O)N[C@@H](CO)C(=O)NCC(=O)N[C@@H](C)C(=O)N1CCC[C@H]1C(=O)N1CCC[C@H]1C(=O)N1CCC[C@H]1C(=O)N[C@@H](CO)C(N)=O [HEC-PT112]
EC50 (GLP-1R): 0.183 nM | EC50 (GCGR): 0.871 nM | Cumulative food intake (g/pcs) D7 [1, 3]: 5.6 g/pcs | Weight gain rate (%) D7 [1, 3]: -21.3±4.0% | Cumulative food intake (g/pcs) D10 [1, 4]: 7.8 g/pcs | Weight gain rate (%) D10 [1, 4]: -28.6±7.0% | Cumulative food intake (g/each) D13 [1, 5]: 10.6 g/each | Weight gain rate (%) D13 [1, 5]: -32.4±7.7% | Cumulative food intake (g/each) D16 [1, 6]: 15.5 g/each | Weight gain rate (%) D16 [1, 6]: -34.0±7.1% | Cumulative food intake (g/each) D19 [1, 7]: 21.0 g/each | Weight gain rate (%) D19 [1, 7]: -34.5±5.7% | Cumulative food intake (g/each) D22 [1, 8]: 26.6 g/each | Weight gain rate (%) D22 [1, 8]: -35.6±5.6% | Cumulative food intake (g/each) D25 [1, 9]: 32.3 g/each | Weight gain rate (%) D25 [1, 9]: -36.4±5.1% | Cumulative food intake (g/each) D28 [1, 10]: 39.1 g/each | Weight gain rate (%) D28 [1, 10]: -36.2±4.3% | Cumulative food intake (g/each) D30 ([1]; 10 nmol/kg s.c. once every 3 days, D30): 43.0^a g/each | Weight gain rate (%) D31 ([1]; 10 nmol/kg s.c. once every 3 days, D31): -35.6±4.3^a % | Cumulative food intake (g/pcs) D0 ([1]; 10 nmol/kg s.c., D0): 2.3 g/pcs | Weight gain rate (%) D0 ([1]; 10 nmol/kg s.c., D0): 0.0±0.0% | Cumulative food intake (g/pcs) D1 ([1]; 10 nmol/kg s.c., D1): 2.5 g/pcs | Weight gain rate (%) D1 ([1]; 10 nmol/kg s.c., D1): -5.4±0.9% | Cumulative food intake (g/pcs) D2 ([1]; 10 nmol/kg s.c., D2): 2.9 g/pcs | Weight gain rate (%) D2 ([1]; 10 nmol/kg s.c., D2): -8.8±0.8% | Cumulative food intake (g/pcs) D3 ([1]; 10 nmol/kg s.c., D3): 3.5 g/pcs | Weight gain rate (%) D3 ([1]; 10 nmol/kg s.c., D3): -10.6±1.0% | Cumulative food intake (g/pcs) D4 ([1]; 10 nmol/kg s.c., D4): 4.1 g/pcs | Weight gain rate (%) D4 ([1]; 10 nmol/kg s.c., D4): -12.6±1.7% | liver function and blood lipids of DIO mice ([1]; after 4 weeks of administration): significantly improved the liver function and blood lipids | food intake inhibition effect compared with LY3298176 [1, 11]: certain advantages in inhibiting food intake | weight loss effect compared with LY3298176 [1, 11]: significantly better than that of LY3298176 | Liver index/% [1, 12]: 3.0±0.0^a % | Liver/g [1, 12]: 0.9±0.1^a g | Weight/g [1, 12]: 29.7±2.5^a g | ALT (U/L) [1, 13]: 25.9±6.6^a U/L | AST (U/L) [1, 13]: 115.3±16.2^a U/L | CHOL (mmol/L) [1, 13]: 3.1±0.5^a mmol/L | TRIGL (mmol/L) [1, 13]: 0.6±0.1^a mmol/L | Blood glucose level (mM) 15 min ([2]; 3 nmol/kg s.c. single dose, 24 h after administration, 15 min after 2 g/kg glucose i.p.): 11.7 ± 2.6 mM | Blood glucose level (mM) 30 min ([2]; 3 nmol/kg s.c. single dose, 24 h after administration, 30 min after 2 g/kg glucose i.p.): 8.6 ± 1.9 mM | Blood glucose level (mM) 60 min ([2]; 3 nmol/kg s.c. single dose, 24 h after administration, 60 min after 2 g/kg glucose i.p.): 7.3 ± 0.7 mM | Blood glucose level (mM) 90 min ([2]; 3 nmol/kg s.c. single dose, 24 h after administration, 90 min after 2 g/kg glucose i.p.): 6.7 ± 0.6 mM | Blood glucose level (mM) 0 min ([2]; 3 nmol/kg s.c. single dose, 24 h after administration, basal before 2 g/kg glucose i.p.): 4.9 ± 1.3 mM | improvement of glucose tolerance compared with LY3298176 ([2]; 24 hours after a single administration, 3 nmol/kg): improved glucose tolerance in mice better than the positive control LY3298176 | AUC0-90 min ([2]; blood glucose AUC, 3 nmol/kg s.c. single dose, 24 h after administration, 2 g/kg glucose i.p.): 726.2±82.4^a | EC50 (GIPR): 0.0534 nM
